# Assay results published in PubChem BioAssay AID463229 (Broad Institute, 2010).
# “And” between values parts separate entries of the source, which are not always exact repeats. Equal entries are not always repeated.
# Test system: INS-1E rat beta cells, no cytokines, CellTiter-Glo ATP, 48 h
# Test: ATP level change in INS-1E without cytokines, dose response, counter-screen for beta-cell apoptosis protection project, INS-1E rat cells, ATP luminescence, cherry pick (AID 463229)
row,SMILES,AC50
1,O=[N+]([O-])c1ccc(S(=O)(=O)c2ccccc2)nc1,10.6 µM
2,Nc1nonc1-n1nnc(C(=O)N/N=C/c2cc(Cl)ccc2O)c1CN1CCCCCC1,10.5 µM
3,O=C1C(Cl)=C(Nc2ccc3cn[nH]c3c2)C(=O)c2ccccc21,4.47 µM
4,Oc1c(Br)cc(Br)cc1/C=N/Nc1ccc(Cl)nn1,1.21 µM
5,O=C(c1cc(COc2cccc(C(F)(F)F)c2)on1)N1CCC(c2ccncc2)CC1,7.14 µM
6,C#CCOCCOCCOCCNc1nc(N2CCN(C(=O)CCCCCCCCCCNC(=O)[C@@H](CCSC)n3cc(CCO)nn3)CC2)nc(N2CCN(C(=O)CCCCCCCCCCNC(=O)[C@H]([C@@H](C)CC)n3cc(CCCCCN)nn3)CC2)n1,12.9 µM
7,CCN(CC)S(=O)(=O)c1cc(OC)ccc1N=Nc1ccc(O)c2ncccc12,4.04 µM
8,CCCOCc1ccc(O)c2ncccc12,7.79 µM
9,CCCCc1ccc(N/C(N)=N/c2nc(C)cc(C)n2)cc1,5.12 µM
10,COc1ccc(OCc2n(CC(=O)OC3CC(C)CCC3C(C)C)c3ccccc3[n+]2C)cc1 (stereo not drawn),4.3 µM
11,O=C(Nc1cccc(NC(=O)c2ccccc2Cl)c1)c1ccc([N+](=O)[O-])o1,7.58 µM
12,Cc1occc1C(=O)N/N=C/c1ccc2c(c1)OCO2,5.48 µM
13,Cc1[nH]n(-c2ccccc2)c(=O)c1/C=N/Nc1nncc(-c2ccccc2)n1,1.22 µM
14,CCC1=NN(C(=O)c2ccccc2O)C(O)(c2ccccc2)C1 (stereo not drawn),15.6 µM
15,C=C[C@H](Cc1ccccc1)N(Cc1ccccc1)S(=O)(=O)N(Cc1ccccc1)[C@H](C=C)Cc1ccccc1,4.79 µM
16,COc1cccc(CNCCc2c[nH]c3ccccc23)c1OCc1ccccc1F,7 µM
17,O=C(CSc1nc2ccccc2c(=O)n1-c1ccccc1)N1CCc2ccccc2C1,3.16 µM
18,Cc1ccc(C#CC[N+]2(CC#Cc3ccc(C)cc3)CCCCC2)cc1,3.33 µM
19,COc1ccc2cc1Oc1ccc(cc1)C[C@H]1c3c(cc(OC)c4c3Oc3c(ccc5c3[C@H](C2)N(C)CC5)O4)CCN1C,7.68 µM
20,CN(C)C(=O)c1ccc(NC(=O)c2cccnc2)cc1,7.27 µM
21,Cc1ccc(Nc2c(-c3ccccn3)nc3ccc(C)cn23)cc1,7.28 µM
22,Cn1cc(C(=O)N/N=C/c2c(O)ccc3ccccc23)ccc1=O,2.5 µM
23,CCCCCc1cc(=O)oc2c(C(CCN3CCCC(C)C3)c3ccc(OC)cc3)c(OC)cc(OC)c12 (stereo not drawn),14.2 µM
24,CCC(CO)Oc1cc(NCc2ccc(C(C)(C)C)cc2)c2ncn(C(C)C)c2c1 (stereo not drawn),2.45 µM
25,Cc1ccc(-n2c(-c3ccccc3)c[n+]3c2CCC3)cc1,3.11 µM
26,CCCC(=O)NC(c1ccccc1)c1ccc2cccnc2c1O (stereo not drawn),2.85 µM
27,CCOc1cc(S(=O)(=O)NCc2ccncc2)ccc1Cl,1.19 µM

row,SMILES,AC50
1,CN(C)CCCN(C(=O)c1ccc(S(=O)(=O)N(C)Cc2ccccc2)cc1)c1nc2cc3c(cc2s1)OCO3,15.9 µM
2,COc1ccc(-n2c(CNc3ccc(C)cc3)nnc2SCC(=O)Nc2nc(-c3ccccc3)cs2)cc1,12.7 µM
3,c1ccc2c(c1)OCC(CNc1ncnc3sccc13)O2 (stereo not drawn),1.6 µM
4,CNC[C@H](CC1CCCCC1)NC[C@H](Cc1ccccc1)NCCC12CC3CC(CC(C3)C1)C2,4.44 µM
5,Cc1ccc(NC(=O)/C=C/c2ccc([N+](=O)[O-])s2)c(C)c1,13.1 µM
6,Cc1c(C(=O)N/N=C/c2c(O)ccc3ccccc23)nnn1-c1nonc1N,2.18 µM
7,Cc1cccc(NC(=O)/C=C/c2ccc([N+](=O)[O-])s2)c1,8.56 µM
8,O=[N+]([O-])/C=C/c1ccc2c(ccn2Cc2ccccc2)c1,7.72 µM
9,COC(=O)c1ccc(NC(=O)c2cccnc2)cc1,7.58 µM
10,CC1CCC(C(C)C)C(OC(=O)Cn2c(-c3ccccc3)[n+](C)c3ccccc32)C1 (stereo not drawn),2.76 µM and 3.37 µM
11,CSc1ccccc1OCc1cc(C(=O)N2CCc3c(Cl)cccc3C2)no1,6.99 µM
12,Clc1ccc2nnnc(-c3ccccc3)c2c1,7.48 µM
13,OCc1ccc(O)c2ncccc12,2.38 µM
14,CCN(Cc1ccccc1)C(c1ccc(C(F)(F)F)cc1)c1nnnn1C(C)(C)C (stereo not drawn),4.83 µM
15,Cc1ccc(N(CC(=O)Nc2cc(C)cc(C)c2)S(=O)(=O)c2c(C)noc2C)cc1,14.5 µM
16,C=CCCc1ccc(C#N)c(SCc2c(C(=O)OCC)c3cc(OC(C)=O)c(Br)cc3n2C)n1,1.07 µM
17,CS(=O)(=O)N(CC(=O)Nc1ccc(CC#N)cc1)c1ccc(C23CC4CC(CC(C4)C2)C3)cc1,7.41 µM
18,CCCC(=O)NC(c1ccc(C)cc1)c1ccc2cccnc2c1O (stereo not drawn),1.99 µM
19,Cc1ccc2nc(-c3ccc(NC(=O)c4cccnc4)cc3)oc2c1,7.8 µM
20,CC1(C)CC(N2CCN(Cc3ccccc3)CC2)=CC(=[N+]2CCCCC2)C1,2.55 µM
21,c1ccc(-c2cccc(-c3ccccn3)n2)nc1,1.24 µM
22,COc1ccc(-c2nn(-c3ccccc3)cc2C(=O)OCC(=O)c2ccc(C)c([N+](=O)[O-])c2)cc1,0.866 µM
23,CCCCCCc1ccc(N2C[C@H](Cc3ccccc3)[C@@H](CC(=O)NCc3ccc(OC)cc3)C2=O)cc1,13.6 µM
24,CC1=CC(=O)C(C(C)C)=C/C1=N/OS(=O)(=O)c1ccccc1,1.42 µM
25,CCCCCc1ccc(OCCCC[n+]2cccc(C)c2)c(CCCCC)c1,2.1 µM
26,S=C(NCc1ccc(Cl)cc1)NC12CC3CC(CC(C3)C1)C2,13.9 µM
